Measured values reported in the NIST ThermoML archive (doi:10.1016/j.tca.2006.01.013).

Test: xn = mol fraction of the nth substance listed
Conditions: 101 kPa, Liquid, Vibrating tube method

NCCN [ethane-1,2-diamine] + O
mass density [kg/m3]
Conditions | 323.15 K | 328.15 K | 333.15 K | 338.15 K | 343.15 K | 348.15 K | 353.15 K
x2 = 0.0401 | 872.83 | 868.06 | 863.25 | 858.43 | 853.59 | 848.71 | 843.82
x2 = 0.0797 | 876.97 | 872.2 | 867.42 | 862.6 | 857.77 | 852.91 | 848.01
x2 = 0.1199 | 881.48 | 876.73 | 871.95 | 867.15 | 862.33 | 857.47 | 852.59
x2 = 0.1598 | 886.3 | 881.56 | 876.8 | 872.01 | 867.2 | 862.35 | 857.48
x2 = 0.2003 | 891.39 | 886.66 | 881.91 | 877.13 | 872.32 | 867.48 | 862.61
x2 = 0.25 | 897.71 | 892.99 | 888.25 | 883.48 | 878.68 | 873.85 | 868.98
x2 = 0.2999 | 904.5 | 899.79 | 895.05 | 890.29 | 885.49 | 880.67 | 875.81
x2 = 0.3497 | 911.88 | 907.18 | 902.45 | 897.69 | 892.89 | 888.07 | 883.2
x2 = 0.3998 | 919.54 | 914.84 | 910.11 | 905.35 | 900.55 | 895.73 | 890.86
x2 = 0.4504 | 927.55 | 922.85 | 918.12 | 913.36 | 908.57 | 903.74 | 898.87
x2 = 0.5001 | 935.8 | 931.11 | 926.38 | 921.62 | 916.83 | 912 | 907.14
x2 = 0.5499 | 944.38 | 939.7 | 934.98 | 930.23 | 925.44 | 920.62 | 915.76
x2 = 0.5998 | 952.77 | 948.12 | 943.43 | 938.7 | 933.95 | 929.15 | 924.32
x2 = 0.6499 | 960.7 | 956.11 | 951.49 | 946.83 | 942.13 | 937.39 | 932.61
x2 = 0.7004 | 967.91 | 963.45 | 958.96 | 954.42 | 949.83 | 945.19 | 940.53
x2 = 0.7499 | 973.34 | 969.1 | 964.81 | 960.46 | 956.08 | 951.64 | 947.14
x2 = 0.8 | 976.78 | 972.86 | 968.88 | 964.84 | 960.73 | 956.56 | 952.33
x2 = 0.84 | 978.35 | 974.76 | 971.09 | 967.34 | 963.52 | 959.62 | 955.65
x2 = 0.88 | 979.3 | 976.06 | 972.74 | 969.32 | 965.81 | 962.21 | 958.53
x2 = 0.9193 | 980.41 | 977.53 | 974.54 | 971.43 | 968.22 | 964.91 | 961.5
x2 = 0.9599 | 982.91 | 980.35 | 977.65 | 974.83 | 971.88 | 968.82 | 965.65
